Experimental data reported in article PMC12001207 (The FEBS journal, 2025).

How the values were obtained:
Type in all cases: cell-based
[1] = biological target: T1, succinate receptor 1 (SUCNR1) (Homo sapiens, UniProt Q9BXA5); experiment: cAMP inhibition assay; also DMR, IP1, Ca2+, arrestin-3 and miniG BRET
T1 sequence (Q9BXA5 1-334): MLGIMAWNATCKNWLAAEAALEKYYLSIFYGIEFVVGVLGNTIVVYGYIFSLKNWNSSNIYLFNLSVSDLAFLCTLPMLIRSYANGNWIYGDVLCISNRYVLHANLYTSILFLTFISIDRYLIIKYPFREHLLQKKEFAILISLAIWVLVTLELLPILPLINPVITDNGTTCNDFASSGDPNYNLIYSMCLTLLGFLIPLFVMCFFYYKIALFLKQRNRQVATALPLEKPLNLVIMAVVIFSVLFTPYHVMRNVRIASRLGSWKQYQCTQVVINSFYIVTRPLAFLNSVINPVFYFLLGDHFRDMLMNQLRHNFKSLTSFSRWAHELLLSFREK

[2] = biological target: T1, succinate receptor 1 (SUCNR1); experiment: dynamic mass redistribution, concentration-response
[3] = biological target: T1, succinate receptor 1 (SUCNR1); experiment: antagonism at […] of agonist-induced IP1, Ca2+, cAMP inhibition, DMR and miniG BRET

Row | SMILES | dynamic mass redistribution, concentration-response [2] | further results
1 | O=C(O)[C@H]1O[C@H]1C(=O)O [CES, cis-epoxysuccinate] |  | EC50 [1]: ~111 nM
2 | O=C(O)CC(=O)C(=O)O [oxaloacetate] | Metabolite SUCNR1 agonists (malate, oxaloacetate, methylmalonate, itaconate, malonate) showed concentration-dependent responses upon SUCNR1 stimulation | 
3 | O=C(O)CCC(=O)O [SUC, succinate] |  | EC50 [1]: ~644 nM
4 | O=C(O)CC(O)C(=O)O (centres unmarked) [malate] | Metabolite SUCNR1 agonists (malate, oxaloacetate, methylmalonate, itaconate, malonate) showed concentration-dependent responses upon SUCNR1 stimulation | 
5 | CC(C(=O)O)C(=O)O [methylmalonate] | Metabolite SUCNR1 agonists (malate, oxaloacetate, methylmalonate, itaconate, malonate) showed concentration-dependent responses upon SUCNR1 stimulation | 
6 | CN1CCN(Cc2ccc(-c3cccc(C(=O)Nc4ccccc4CC(=O)O)c3)cc2)CC1 [NF56-EJ40, 2-(2-(4′-((4-methylpiperazin-1-yl)methyl)-[1,1′-biphenyl]-3-carboxamido)phenyl)acetic acid] |  | antagonism at 100 nM of agonist-induced IP1, Ca2+, cAMP inhibition, DMR and mini [3]: NF56-EJ40 also completely inhibited the agonist-induced SUCNR1-mediated IP1 formation and caused a significant shift of the cAMP inhibition curve
7 | O=C(O)CC(=O)O [malonate] | Metabolite SUCNR1 agonists (malate, oxaloacetate, methylmalonate, itaconate, malonate) showed concentration-dependent responses upon SUCNR1 stimulation | 
8 | C=C(CC(=O)O)C(=O)O [itaconate] | Metabolite SUCNR1 agonists (malate, oxaloacetate, methylmalonate, itaconate, malonate) showed concentration-dependent responses upon SUCNR1 stimulation | 
